Several values for one entry are separate records, joined by “and”; a condition that tells them apart may be missing. Identical values can stand only once.
Legend:
small intestine [1] = experiment: Co-administration of GLP-2 with IGF-1 or GH: small intestine mass (Example 2); assay type: in vivo, mice; details: for Small Intestine Mass: s.c. twice daily (GH once daily) for 10 days, sacrifice day 11, GLP-2 peptides 2.5 μg, IGF-1/LRIGF-1 50 μg, GH 25 μg per dose, CD1 female mice; for % Change Relative to PBS Control (small intestine) / Change in Intestine Mass Relative to Control (small intestine): same regimen; for Change in Intestine Mass Relative to Control (small intestine): relative to PBS control
From the text: (§1) Forty-eight, six week old female CD1 mice (approx. 25 grams, obtained from Charles River Laboratories) were acclimatized in the animal facility for 1 week prior to the experiment. They were housed in plastic bottom, wire lid cages, maintained on a 12 hr light/dark cycle, and allowed chow and water, ad libitum throughout the study. Four days before starting the treatment the mice were weighed using a Mettler PJ300 scale and randomly allocated to 1 of 12 treatment groups. For the experiment, subcutaneous injections in the right hind quarter were given twice daily in the morning and evening for 10 days. However, Growth Hormone (GH) was administered only once a day in the morning. On day 10, the mice were fasted from 12 noon on. Body weight was also taken on day 5 and day 11.
(§2) The treatment groups consisted of the following peptides and peptide combinations. The amount of peptide received per dose by each animal is marked in beside each entry.
(§3) The peptides were weighed (Mettler AE166 scale), reconstituted and aliquoted on the day prior to the first injection. The injection volume, 0.5 ml, was constant through out the experiment using a 1/2 cc U-100 Insulin Syringe (Becton Dickinson and Company, N.J.). All peptide aliquots, except Protropin (GH), were kept at -20° C. and removed 60 minutes prior to injection to thaw. GH was kept at 4° C.
(§4) Control mice (group 1) received the same volume (0.5 ml) of phosphate buffered saline (PBS-1x-137 mM NaCl, 2.7 mM KCl, 4.3 mM Na2HPO4, pH 7.3). Peptides [rat GLP-2] (5 μg/ml) and human [Gly 2] GLP-2 (5 μg/ml) were reconstituted in PBS. One microliter of 1 N NaOH was required to dissolve [Gly2]hGLP-2 in 1 ml.
(§5) IGF recombinant peptides (IGF-1, Lot #FJF-103;Long R3IGF-1(LRIGF-1), Lot# HJF-A01 GroPep Pty Ltd., Australia) stock solutions were reconstituted in 10 mM HCl at a concentration of 1 mg/ml. To minimize the absorption of the peptide to the plastic surface, RIA Grade Bovine Serum Albumin (BSA) (BioLabs Lot 7943) was added to the PBS working solution (100 μg/ml BSA final concentration). Protropin (Growth hormone) (Lot C9009A2, Genentech Canada Inc., Burlington, ON) stock solution was reconstituted with Bacteriostatic water supplied in the kit. The working solution (50 μg/ml) was diluted in PBS (without BSA). Combination treatments of GH+rat GLP-2 and GH+[Gly 2]hGLP-2 were administered by mixing 0.25 mls of each peptide, which were taken up into the same syringe to maintain a consistent injection volume of 0.5 ml. All other combination treatments (for example, rGLP-2+IGF etc.) were initially made up as separate solutions, mixed together, and frozen down together as aliquots of a single mixture, to be administered as single 0.5 ml injections.
(§6) Mice were sacrificed on day 11. Weight measurements were taken for the heart, kidneys, stomach, small intestine and large intestine. Small intestine length was also measured. Blood was taken via cardiac puncture and the plasma was frozen for future analysis. Tissues were also removed for histological analysis.

large intestine = experiment: Co-administration of GLP-2 with IGF-1 or GH: large intestine mass (Example 2); assay type: in vivo, mice; details: for Large Intestine Mass: s.c. twice daily (GH once daily) for 10 days, sacrifice day 11, GLP-2 peptides 2.5 μg, IGF-1/LRIGF-1 50 μg, GH 25 μg per dose, CD1 female mice; for % Change Relative to PBS Control (large intestine) / Change in Intestine Mass Relative to Control (large intestine): same regimen; for Change in Intestine Mass Relative to Control (large intestine): relative to PBS control
From the text: as §1, §2, §3, §4, §5, §6

small intestine [2] = experiment: Effect of rat GLP-2 on small intestine weight in mice (Example 1); assay type: in vivo; details: for Small Intestine Weight % body wt / Small Intestine Weight Ave: group average; for Small Intestine Weight % body wt / Small Intestine Weight Ave / Small Intestine Weight Day 10: 41.5 μg peptide per injection s.c. every 12 hours for 10 days, CD1 females; for Small Intestine Weight Day 10: single mice
Protocol: This experiment was designed to investigate the effect of GLP-2 on small intestine growth. Mice were treated with human GLP-1, rat GLP-2, or no peptide, and the mass of the small intestine analyzed.
For this experiment, rat GLP-2 and human GLP-1 (7-36 amide) were custom synthesized by application of the tBoc-based solid phase approach. […] The pH was then readjusted to about 7.0 by addition of an equal volume of IN NaOH […], and the solution volume was then adjusted to 10 mL by addition of distilled water. To prepare the formulation for injection, the 10 mL peptide solution and the 50 mL solution of 16% gelatin were combined with mixing, and aliquots for injection were drawn into a 0.5 mL insulin syringe. The same procedure was used to formulate the GLP-1, with the exception that no acid/base adjustment was necessary given its relative greater solubility in water.
Three groups of six mice (8 week old, CD1 females from Charles River Laboratories) were treated as follows. Each mouse received injections for 10 days. The injections were delivered subcutaneously in a final volume of 16% gelatin, with 0.5 cc injected subcutaneously every 12 hours. Mice treated with GLP-1 or GLP-2 peptide received 41.5 μg of the respective peptide in each injection. Control mice received 0.5 cc of 16% gelatin solution, but no peptide. Mice were fed standard rat chow with free access to food and water, until 12 hours prior to sacrifice, at which time food was withheld, and water only was given. The weight of the small intestine was ascertained by excising the entire intestine, and removing the stomach (proximal end) and appendix/cecum/large intestine (distal end). The remaining small intestine was cleaned with saline to remove feces, and weighed.

Substance | Small Intestine Mass (small intestine [1]) | Large Intestine Mass (large intestine) | % Change Relative to PBS Control (large intestine) (large intestine) | Change in Intestine Mass Relative to Control (large intestine) (large intestine) | % Change Relative to PBS Control (small intestine) (small intestine [1]) | Change in Intestine Mass Relative to Control (small intestine) (small intestine [1]) | Small Intestine Weight % body wt (small intestine [2]) | Small Intestine Weight Ave (small intestine [2]) | Small Intestine Weight Day 10 (small intestine [2]) | increase in the mass of small intestine relative to control group and GLP-1 group (small intestine [2]; about 2 mg/kg (about 500 nmole/kg) twice daily for 10 days)
IGF-1: Insulin-Like Growth Factor-1, recombinant peptide, GroPep Pty Ltd. | 1.158 g and 1.517 g | 0.262 g | -7% | 0.021 g |  |  |  |  |  | 
[Gly 2] hGLP-2: Human GLP-2 having Gly substituted for Ala at position 2 (HGDGSFSDEMNTILDNLAARDFINWLIQTKITD; Glucagon-like peptide 2; UniProt P01275 146-178, looked up, variant A2G) | 1.810 g | 0.308 g | +9% | 0.025 g | +75% | 0.775 g |  |  |  | 
hGH: Protropin (Growth hormone), Genentech Canada Inc. [reference compound] | 1.230 g | 0.260 g | -8% | 0.023 g | +19% | 0.195 g |  |  |  | 
human GLP-1 (7-36 amide) [reference compound] |  |  |  |  |  |  | 5.26 ± .25 % body wt | 1.33 ± .04 gm | 1.4 gm and 1.3 gm and 1.2 gm | 
rat GLP-2: rat Glucagon-like peptide-2, 33 amino acid peptide, custom synthesized by tBoc-based solid phase approach (HADGSFSDEMNTILDNLATRDFINWLIQTKITD; Glucagon-like peptide 2; UniProt P06883 146-178, looked up) | 1.066 g | 0.245 g | -13.10% | -0.038 g | +3% | 0.031 g | 8.12 ± .40 % body wt | 2.08 ± .14 gm | 1.8 gm and 2.3 gm and 2.4 gm | statistically significant (p-- 0.05) increase

— patent publication US5952301A, “Compositions and methods for enhancing intestinal function” (1149336 Ontario Inc., priority 1996, dated 1999)
